In experiment [1] the test system is B16F10 cells. As to the kind of experiment: Melanin synthesis inhibition in α-MSH-treated melanocytes. It counts as cell-based, mouse. As to conditions: 72 hours. The method, then:
Mouse-derived melanocytes (B16F10 cells) were obtained from the American Type Culture Collection (ATCC) and used. The cells were cultured in Dulbecco's Modified Eagle's Medium (DMEM) supplemented with 1% penicillin-streptomycin and 10% fetal bovine serum (FBS) at 37 °C in a 5% CO2 incubator, and subcultured every 3 to 4 days.
B16F10 cells were seeded at 6.0×10^4 cells/well in a 6-well plate and cultured for 24 hours at 37 °C in a 5% CO2 incubator. The culture medium was then replaced with phenol red-free, serum-free DMEM, followed by treatment with α-MSH, a melanin production-inducing hormone, and the peptide from the above Preparation Example at concentrations ranging from 1 to 100 μM. The cells were incubated for 72 hours, after which they were collected and lysed with 1 N NaOH in an 80 °C heating block to dissolve intracellular melanin. The absorbance of the resulting solution was measured at 490 nm. The control group was treated with arbutin at a concentration of 500 μg/mL.

The test system of experiment [2] is NHDF cells. As to the kind of experiment: Procollagen Type I Peptide (PIP) production, EIA. It counts as cell-based, human. The method, then: Normal Human Dermal Fibroblasts (NHDF) were obtained from Lonza (Lonza Walkersville, Inc.) and cultured in FBM (Fibroblast Basal Medium) supplemented with 0.1% hFGF-B, insulin, GA-1000, and 2% FBS at 37 °C in a 5% CO2 incubator. Subculture was performed every 2 to 3 days.
NHDF cells were seeded at 2.0×10^4 cells/well in a 24-well plate and incubated for 24 hours at 37 °C in a 5% CO2 incubator. After incubation, the culture medium was replaced with serum-free FBM, and the peptide prepared in the above Example was applied at concentrations of 1-100 μM, followed by incubation for 24 hours. The supernatant from each experimental group was collected, and the amount of procollagen released into the medium was measured. The positive control group was treated with ascorbic acid at a concentration of 0.001 v/v %. Measurement of procollagen levels was performed using a Procollagen Type I Peptide (PIP) EIA Kit (Takara Biomedical Co.) according to the manufacturer's protocol. The quantitative results of procollagen type I peptide production following treatment with the peptide of the Example are shown in Table 2 and FIG. 3.

Experiment [3] deals with HaCaT cells. As to the kind of experiment: Hyaluronic acid (HA) production, ELISA. It counts as cell-based, human. The procedure:
The HaCaT human keratinocyte cell line was obtained from Cell Line Service GmbH (Germany). The cells were cultured in DMEM containing 1% penicillin-streptomycin and 10% fetal bovine serum (FBS) at 37 °C in a 5% CO2 incubator, and subculture was performed every 2 to 3 days.
HaCaT cells were seeded at 1.0×10^5 cells/well in a 24-well plate and incubated for 24 hours at 37 °C in a 5% CO2 incubator. After incubation, the culture medium was replaced with serum-free DMEM, and the peptide prepared in the above Example was applied at concentrations of 50-200 μM, followed by incubation for 24 hours. The supernatant from each experimental group was collected, and the amount of hyaluronic acid (HA) released into the medium was measured. The positive control group was treated with N-acetylglucosamine at a concentration of 10 mM. Measurement of hyaluronic acid production was conducted using a Hyaluronic Acid ELISA Kit (Cusabio Biotechnology Co., Ltd.) following the manufacturer's protocol.

As to `OC[C@H]1O[C@@H](Oc2ccc(O)cc2)[C@H](O)[C@@H](O)[C@@H]1O` [Arbutin, arbutin, reference compound], the activity at 500 µg/mL in experiment [1] (Mus musculus, B16-F10, 500 μg/mL, control, with α-MSH (200 nM), α-MSH alone = 100 ± 3.6, untreated = 75 ± 3.04, read-out: Melanin production) was 59.6 ± 0.8%.

Consider `O=C1O[C@H]([C@@H](O)CO)C(O)=C1O` [Asc.A, ascorbic acid, reference compound], for which the activity at 10 µg/mL in experiment [2] (Homo sapiens, NHDF, 24 h, 10 μg/mL, positive control, untreated group = 100 ± 1.29) is 159 ± 3.8%.

As for `CC(=O)N[C@H]1C(O)O[C@H](CO)[C@@H](O)[C@@H]1O` (stereo partly shown) [NAG, N-acetylglucosamine, reference compound], the activity at 10000 µM in experiment [3] (Homo sapiens, HaCaT, 24 h, 10 mM, positive control, untreated group = 100 ± 5.15) was determined as 125.5 ± 1.18%.

In the case of “Ala-Ala-Gln-Pro-Arg (AAQPR; printed: Ala-Ala-Gln-Pro-Arg)”, the Procollagen production in experiment [2] (1 μM, 24 hours, untreated group = 100 ± 1.29) is recorded as 105.45 ± 3.15%; in experiment [2] (10 μM, 24 hours, untreated group = 100 ± 1.29), 129.75 ± 9.74%; in experiment [2] (50 μM, 24 hours, untreated group = 100 ± 1.29), 132.64 ± 13.74%; in experiment [2] (100 μM, 24 hours, untreated group = 100 ± 1.29), 134.92 ± 1.3%. Moreover, the “procollagen production (in words)” value in experiment [2] (1-100 μM, 24 hours) is on record as “increase in procollagen production”. For the same molecule, the Melanin production in experiment [1] (1 μM, with α-MSH (200 nM), α-MSH alone = 100 ± 3.6, untreated = 75 ± 3.04) amounted to 100.86 ± 4.32%; in experiment [1] (10 μM, with α-MSH (200 nM), α-MSH alone = 100 ± 3.6, untreated = 75 ± 3.04), 89.62 ± 2.95%; in experiment [1] (100 μM, with α-MSH (200 nM), α-MSH alone = 100 ± 3.6, untreated = 75 ± 3.04) it was 79.76 ± 4.18%. Moreover, in experiment [1] (1-100 μM, with α-MSH), the “melanin production (in words)” value is “inhibited melanin production”. Besides, the Hyaluronic acid production is recorded as 107.14 ± 1.08% in experiment [3] (50 μM, 24 hours, untreated group = 100 ± 5.15); 130.93 ± 0.59% in experiment [3] (100 μM, 24 hours, untreated group = 100 ± 5.15); 136.91 ± 6.87% in experiment [3] (200 μM, 24 hours, untreated group = 100 ± 5.15). For the same molecule, the “hyaluronic acid production (in words)” value in experiment [3] (50-200 μM, 24 hours) is on record as “increase in hyaluronic acid production”.
